Assay results from patent publication US20220289794A1, “SYNTHETIC ANTIMICROBIAL PEPTIDES” (priority 2019, published 2022).
Values after ≈ are worked out from the molar mass of the structure shown. Read-outs that look alike come from different tables or passages of the source. Positions of bridges follow the written chain, without caps; N, C: chain ends. Non-standard residues stand in square brackets, D forms with d. Residues, ends and D or L forms follow the SMILES beside them. d2Nal = N[C@H](Cc1ccc2ccccc2c1)C(=O)O

What was measured:
[1] = test system: Methicillin-resistant Staphylococcus aureus MRSA (ATCC BAA-1556)
[2] = test system: Pseudomonas aeruginosa (ATCC 27883); conditions: P. aeruginosa ATCC 27883
[3] = test system: Escherichia coli (ATCC 25922)
[4] = test system: K. pneumoniae strain ATCC BAA-2470 biofilm
Method: Bacteria. The bacterial strains employed in these assays were obtained from the American Type Culture Collection (ATCC). Each strain was propagated as recommended by the ATCC and each strain was stored as a frozen glycerol stock at −80° C.
Bacterial Propagation. […] Following the incubation, the culture was diluted to an optical density 625 nm (OD625) of 0.1 in cation adjusted Mueller Hinton Broth (CAMHB), which is equivalent to 1×10^8 CFU/mL. The culture was further diluted to 1×10^6 CFU/mL which was used for the assay.
Determination of the Temporal Effects of SPL7013 Addition to Inhibit Biofilm Formation. Each strain of bacteria was adjusted to a concentration of 1×10^6 CFU/mL and added to a 96-well flat-bottomed plate in a volume of 100 mL. One-hundred microliters (100 mL) of each compound at 10 concentrations was added in triplicate wells. The cultures were incubated for 24 hours at 37° C. under the appropriate growth conditions for each organism. Following the incubation, the media was removed, and the formed biofilms were fixed for 1 hour at 60° C. Two-hundred microliters (200 mL) of 0.06% crystal violet was added to the wells for 5 to 10 minutes and the wells were then gently washed three times with deionized H2O to remove the crystal violet. Following crystal violet staining 200 mL of 70% ethanol was added to the wells.

in vitro = conditions: human, fresh human red blood cells (washed), pH 7.4
[5] = test system: Enterococcus faecium ATCC 27270; conditions: for MIC: ATCC 27270
[6] = test system: Enterococcus faecium ATCC 700221; conditions: for MIC: ATCC 700221
[7] = test system: Staphylococcus aureus ATCC 29213
[8] = test system: Klebsiella pneumoniae ATCC 13883
[9] = test system: Enterococcus faecalis ATCC 29212; conditions: for MIC: ATCC 29212
[10] = test system: Enterococcus faecalis ATCC 51575; conditions: for MIC: ATCC 51575
MRSA [11] = test system: MRSA
[12] = test system: Bacillus subtilis (ATCC-6633)
[13] = test system: Bacillus cereus (ATCC-13061)
[14] = test system: Escherichia coli (ATCC BAA-2452)
[15] = test system: Acinetobacter baumannii (ATCC BAA-1605)
[16] = test system: Pseudomonas aeruginosa (ATCC 10145)
[17] = test system: Pseudomonas aeruginosa (ATCC BAA-1744)
[18] = test system: Streptococcus pneumoniae ATCC 49619; conditions: for MIC: ATCC 49619
[19] = test system: Streptococcus pneumoniae ATCC 51938; conditions: for MIC: ATCC 51938
[20] = test system: Pseudomonas aeruginosa (PSA, ATCC 27883); test: Synergy checkerboard assay (FIC index); type: cell-based; conditions: Pseudomonas aeruginosa (ATCC 27883)
MRSA [21] = test: In vivo Galleria Mellonella Assay (MRSA infection); conditions: MRSA-infected G. mellonella, after one week
MRSA (ATCC BAA-1556) = conditions: for MIC of antibiotic: MRSA (ATCC BAA-1556), antibiotic alone
[22] = test system: Escherichia coli (E. Coli, ATCC 25922); conditions: for MIC of antibiotic: Escherichia coli (ATCC 25922), antibiotic alone
[23] = test system: Methicillin-resistant Staphylococcus aureus MRSA (ATCC BAA-1556); test: microbe, parasite or virus in culture; conditions: ATCCBAA1556|MRSA, 24 h, read-out: MRSA (ATCC BAA-1556) MIC, Table 31, [R5W4] (IFX-301), antibiotics alone and PHY-MIX (1:1 w/w)
[24] = test system: Pseudomonas aeruginosa (PSA, ATCC 27883); test: microbe, parasite or virus in culture; conditions: ATCC27883, 24 h
[25] = test system: Escherichia coli (E. Coli, ATCC 25922); test: microbe, parasite or virus in culture; conditions: ATCC25922, 24 h, read-out: Escherichia coli (ATCC 25922) MIC, Table 31, [R5W4] (IFX-301), antibiotics alone and PHY-MIX (1:1 w/w)
B. subtilis (ATCC-6633) = test: Broad-spectrum activity against Gram-Positive bacteria (MIC); type: cell-based; set-up: unit not given here
E. coli (ATCC BAA-2452) = test: Broad-spectrum activity against Gram-Negative bacteria (MIC); type: cell-based; conditions: Table 16, Gram-negative panel
B. cereus (ATCC-13061) = test: Broad-spectrum activity against Gram-Positive bacteria (MIC); type: cell-based; set-up: unit not given here
[26] = test system: A. baumannii (ATCC BAA-1605); test: Broad-spectrum activity against Gram-Negative bacteria (MIC); type: cell-based; conditions: Table 16, Gram-negative panel
[27] = test system: P. aeruginosa (ATCC 10145); test: as above; type: cell-based; conditions: Table 16, Gram-negative panel
[28] = test system: P. aeruginosa (ATCC BAA-1744); test: as above; type: cell-based; conditions: Table 16, Gram-negative panel
[29] = test system: Klebsiella pneumoniae (ATCC BAA-1705); conditions: Table 16, Gram-negative panel
[30] = test system: Klebsiella pneumoniae (KPC, ATCC BAA-1705); conditions: ATCC BAA-1705

## N=C(N)NCCC[C@@H]1NC(=O)[C@@H](CCCNC(=N)N)NC(=O)[C@H](CCCNC(=N)N)NC(=O)[C@@H](Cc2ccc3ccccc3c2)NC(=O)[C@@H](Cc2ccc3ccccc3c2)NC(=O)[C@H](Cc2c[nH]c3ccccc23)NC(=O)[C@@H](CCCNC(=N)N)NC1=O [IFX-111, c[Arg-arg-Arg-arg-Trp-naI-naI]] (cyclo(R[dR]R[dR]W[d2Nal][d2Nal]))
[1]; ATCC BAA-1556
  MIC MRSA ATCC BAA-1556: 1.5 mg/L (≈ 1.24 µM)
S. aureus ATCC 29213; ATCC 29213
  MIC S. aureus ATCC 29213: 1.5 mg/L (≈ 1.24 µM)
[2]
  MIC P. aeruginosa ATCC 27883: 12.5 mg/L (≈ 10.4 µM)
[3]; ATCC 25922
  MIC E. coli ATCC 25922: 6.2 mg/L (≈ 5.14 µM)
[4]; ATCC BAA-2470
  inhibition of biofilm formation: ≤ 23%
In vitro
  HC50 at 0.5 h: 205 µg/mL

## CN(C)c1cc(NC(=O)CNC(C)(C)C)c(O)c2c1C[C@H]1C[C@H]3[C@H](N(C)C)C(O)=C(C(N)=O)C(=O)[C@@]3(O)C(O)=C1C2=O [Tigecycline, reference compound]
[4]; K. pneumoniae, two of the lowest concentrations, 0.2 mg/mL and 0.1 mg/mL
  change of biofilm formation: increase in biofilm formation

## N=C(N)NCCC[C@@H]1NC(=O)[C@H](CCCNC(=N)N)NC(=O)[C@H](CCCNC(=N)N)NC(=O)[C@@H]2CSSC[C@H](NC(=O)[C@H](CCCNC(=N)N)NC1=O)C(=O)N[C@@H](Cc1c[nH]c3ccccc13)C(=O)N[C@@H](Cc1c[nH]c3ccccc13)C(=O)N[C@@H](Cc1c[nH]c3ccccc13)C(=O)N[C@@H](Cc1c[nH]c3ccccc13)C(=O)N2 [[R3CW4CR] (IFX-330)] (cyclo(RRRCWWWWCR); disulfide 4-9)
[5]
  MIC: 8 mg/L (≈ 5.08 µM)
[6]
  MIC: 8 mg/L (≈ 5.08 µM)
[7]
  MIC: 16 mg/L (≈ 10.2 µM)
[8]; ATCC 13883
  MIC: 32 mg/L (≈ 20.3 µM)
[9]
  MIC: 32 mg/L (≈ 20.3 µM)
[10]
  MIC: 32 mg/L (≈ 20.3 µM)
MRSA [11]
  MIC: 8 mg/L (≈ 5.08 µM)
KPC
  MIC: 32 mg/L (≈ 20.3 µM)
PSA
  MIC: 128 mg/L (≈ 81.3 µM)
E. coli
  MIC: 32 mg/L (≈ 20.3 µM)
[12]
  MIC: 8 mg/L (≈ 5.08 µM)
[13]
  MIC: 16 mg/L (≈ 10.2 µM)
[14]; ATCC BAA-2452
  MIC: 32 mg/L (≈ 20.3 µM)
[15]; ATCC BAA-1605
  MIC: 32 mg/L (≈ 20.3 µM)
[16]; ATCC 10145
  MIC: 64 mg/L (≈ 40.7 µM)
[17]; ATCC BAA-1744
  MIC: 32 mg/L (≈ 20.3 µM)

## N=C(N)NCCC[C@@H]1NC(=O)[C@H](CCCNC(=N)N)NC(=O)[C@H](CCCNC(=N)N)NC(=O)[C@H](CCCCN)NC(=O)[C@H](Cc2c[nH]c3ccccc23)NC(=O)[C@H](Cc2c[nH]c3ccccc23)NC(=O)[C@H](Cc2c[nH]c3ccccc23)NC(=O)[C@H](Cc2c[nH]c3ccccc23)NC(=O)[C@H](CCCNC(=N)N)NC(=O)[C@H](CCCNC(=N)N)NC1=O [[R5W4K] (IFX-315)] (cyclo(RRRRRWWWWK))
[5]
  MIC: 8 mg/L (≈ 4.84 µM)
[6]
  MIC: 8 mg/L (≈ 4.84 µM)
[7]
  MIC: 8 mg/L (≈ 4.84 µM)
[8]; ATCC 13883
  MIC: 8 mg/L (≈ 4.84 µM)
[9]
  MIC: 16 mg/L (≈ 9.67 µM)
[10]
  MIC: 32 mg/L (≈ 19.3 µM)
[18]
  MIC: 2 mg/L (≈ 1.21 µM)
[19]
  MIC: 2 mg/L (≈ 1.21 µM)
MRSA [11]
  MIC: 8 mg/L (≈ 4.84 µM)
KPC
  MIC: 32 mg/L (≈ 19.3 µM)
PSA
  MIC: 16 mg/L (≈ 9.67 µM)
E. coli
  MIC: 16 mg/L (≈ 9.67 µM)
[12]
  MIC: 8 mg/L (≈ 4.84 µM)
[13]
  MIC: 16 mg/L (≈ 9.67 µM)
[14]; ATCC BAA-2452
  MIC: 25 mg/L (≈ 15.1 µM)
[15]; ATCC BAA-1605
  MIC: 32 mg/L (≈ 19.3 µM)
[16]; ATCC 10145
  MIC: 32 mg/L (≈ 19.3 µM)
[17]; ATCC BAA-1744
  MIC: 16 mg/L (≈ 9.67 µM)

## CN(C)[C@@H]1C(O)=C(C(N)=O)C(=O)[C@@]2(O)C(O)=C3C(=O)c4c(O)cccc4[C@@](C)(O)[C@H]3C[C@@H]12 [tetracycline, reference compound]
[20]; antibiotic alone
  MIC of antibiotic: 32 mg/L
[20]; Table 26, antibiotic alone
  MIC of antibiotic: 32 mg/L
[20]; Table 27, antibiotic alone
  antibiotic MIC: 32 mg/L
MRSA [21]
  larvae killed: 56.3%
MRSA (ATCC BAA-1556)
  MIC of antibiotic: 0.25 mg/L
MRSA (ATCC BAA-1556); Table 25
  MIC of antibiotic: 0.250 mg/L
[22]
  MIC of antibiotic: 8 mg/L
[22]; Table 25
  MIC of antibiotic: 8 mg/L
[22]; Table 26
  MIC of antibiotic: 8 mg/L
[23]
  MIC: 0.25 mg/L (≈ 0.563 µM)
[24]; read-out: Pseudomonas aeruginosa (ATCC 27883) MIC, Table 29, [R6W4] (IFX-318), antibiotics alone and PHY-MIX (1:1 w/w)
  MIC: 32 mg/L (≈ 72 µM)
[24]; read-out: Pseudomonas aeruginosa (ATCC 27883) MIC, Table 31, [R5W4] (IFX-301), antibiotics alone and PHY-MIX (1:1 w/w)
  MIC: 32 mg/L (≈ 72 µM)
[25]
  MIC: 8 mg/L (≈ 18 µM)

## c[Arg-Arg-arg-arg-naI-Trp-naI] [IFX-135]
[20]; Table 27, peptide alone
  IFX135 MIC: 32 mg/L
B. subtilis (ATCC-6633)
  Broad-spectrum activity B. subtilis (ATCC-6633): 1.5
E. coli (ATCC BAA-2452)
  MIC E. coli (ATCC BAA-2452): 12.5 mg/L
B. cereus (ATCC-13061)
  Broad-spectrum activity B. cereus (ATCC-13061): 6.2
[26]
  MIC A. baumannii (ATCC BAA-1605): 12.5 mg/L
[27]
  MIC P. aeruginosa (ATCC 10145): 25 mg/L
[28]
  MIC P. aeruginosa (ATCC BAA-1744): 12.5 mg/L
[1]; MRSA ATCC BAA-1556
  MIC MRSA ATCC BAA-1556: 1.5 mg/L
S. aureus ATCC 29213; S. aureus ATCC 29213
  MIC S. aureus ATCC 29213: 1.5 mg/L
[2]
  MIC P. aeruginosa ATCC 27883: 32 mg/L
[3]; E. coli ATCC 25922
  MIC E. coli ATCC 25922: 8 mg/L
[29]
  MIC K. pneumonia (ATCC BAA-1705): 12.5 mg/L
MRSA (ATCC BAA-1556); ATCC BAA-1556
  IFX135 MIC: 2 mg/L
[30]
  IFX135 MIC: 16 mg/L
[22]; ATCC 25922
  IFX135 MIC: 8 mg/L
[5]
  MIC: 4 mg/L
[5]; E. faecium ATCC 27270
  Broad-spectrum activity E. faecium (ATCC 27270): 3.1
[6]
  MIC: 4 mg/L
[6]; E. faecium ATCC 700221
  Broad-spectrum activity E. faecium (ATCC 700221): 3.1
[7]
  MIC: 2 mg/L
[8]; Table 16, Gram-negative panel
  MIC K. pneumonia (ATCC 13883): 50 mg/L
[8]; Table 36, Klebsiella pneumonia (ATCC 13883)
  MIC: 64 mg/L
[9]
  MIC: 8 mg/L
[9]; E. faecalis ATCC 29212
  Broad-spectrum activity E. faecalis (ATCC 29212): 6.2
[10]
  MIC: 16 mg/L
[10]; E. faecalis ATCC 51575
  Broad-spectrum activity E. faecalis (ATCC 51575): 12.5
[18]
  MIC: 16 mg/L
[18]; S. pneumoniae ATCC 49619
  Broad-spectrum activity S. pneumoniae (ATCC 49619): 12.5
[19]
  MIC: 16 mg/L
[19]; S. pneumoniae ATCC 51938
  Broad-spectrum activity S. pneumoniae (ATCC 51938): 12.5
MRSA [11]
  MIC: 2 mg/L
KPC; Table 36, Klebsiella pneumoniae (ATCC BAA-1705)
  MIC: 16 mg/L
PSA; Table 36, P. aeruginosa ATCC 27883
  MIC: 32 mg/L
E. coli; Table 36, E. coli ATCC 25922
  MIC: 8 mg/L
[12]
  MIC: 2 mg/L
[13]
  MIC: 8 mg/L
[14]; Table 36, Escherichia coli (ATCC BAA-2452)
  MIC: 16 mg/L
[15]; Table 36, Acinetobacter baumannii (ATCC BAA-1605)
  MIC: 16 mg/L
[16]; Table 36, Pseudomonas aeruginosa (ATCC 10145)
  MIC: 32 mg/L
[17]; Table 36, Pseudomonas aeruginosa (ATCC BAA-1744)
  MIC: 16 mg/L
